Our source for the % of control and % of inhibition values is ChEMBL document CHEMBL5465560, “Selectivity Literature for EUbOPEN Chemogenomic Library” (2024).

The target in experiment [1] is Fibroblast growth factor receptor 4 (Homo sapiens, UniProt P22455). Kind of experiment: Selectivity interaction (KinomeScan (DiscoverX)) EUB0000607a FGFR4. The following applies: at 10 µM.
The target of experiment [2] is Mitogen-activated protein kinase kinase kinase kinase 1 (Homo sapiens) (UniProt Q92918). Particulars: at 10 µM.
Experiment [3] relates to Tyrosine-protein kinase ABL1 (Homo sapiens), P00519 [F317L]. The experiment in a line: Selectivity interaction (KinomeScan (DiscoverX)) EUB0000655a ABL1. The following applies: at 10 µM.
The target of experiment [4] is Serine/threonine-protein kinase Nek4 (Homo sapiens) (UniProt P51957). The experiment in a line: Selectivity interaction (KinomeScan (DiscoverX)) EUB0001079a NEK4. Particulars: at 1 µM.
Experiment [5] deals with Casein kinase II subunit alpha (Homo sapiens, UniProt P68400). The experiment in a line: Selectivity interaction (Kinase panel (Invitrogen)) EUB0000639a CSNK2A1. The following applies: at 200 nM.
Experiment [6] concerns the target Serine/threonine-protein kinase pim-2 (Homo sapiens, UniProt Q9P1W9). The following applies: at 10 µM.
The target in experiment [7] is Proto-oncogene tyrosine-protein kinase ROS (Homo sapiens) (UniProt P08922). Kind of experiment: Selectivity interaction (Millipore kinase profiler) EUB0000124b ROS1. Particulars: at 10 µM.
Experiment [8] deals with Ephrin type-A receptor 5 (Homo sapiens) (UniProt P54756). The experiment in a line: Selectivity interaction (ProQinase) EUB0000171b EPHA5.
The target of experiment [9] is T1, Mitogen-activated protein kinase kinase kinase 19 (Homo sapiens) (UniProt Q56UN5).
T1 sequence (whole entry): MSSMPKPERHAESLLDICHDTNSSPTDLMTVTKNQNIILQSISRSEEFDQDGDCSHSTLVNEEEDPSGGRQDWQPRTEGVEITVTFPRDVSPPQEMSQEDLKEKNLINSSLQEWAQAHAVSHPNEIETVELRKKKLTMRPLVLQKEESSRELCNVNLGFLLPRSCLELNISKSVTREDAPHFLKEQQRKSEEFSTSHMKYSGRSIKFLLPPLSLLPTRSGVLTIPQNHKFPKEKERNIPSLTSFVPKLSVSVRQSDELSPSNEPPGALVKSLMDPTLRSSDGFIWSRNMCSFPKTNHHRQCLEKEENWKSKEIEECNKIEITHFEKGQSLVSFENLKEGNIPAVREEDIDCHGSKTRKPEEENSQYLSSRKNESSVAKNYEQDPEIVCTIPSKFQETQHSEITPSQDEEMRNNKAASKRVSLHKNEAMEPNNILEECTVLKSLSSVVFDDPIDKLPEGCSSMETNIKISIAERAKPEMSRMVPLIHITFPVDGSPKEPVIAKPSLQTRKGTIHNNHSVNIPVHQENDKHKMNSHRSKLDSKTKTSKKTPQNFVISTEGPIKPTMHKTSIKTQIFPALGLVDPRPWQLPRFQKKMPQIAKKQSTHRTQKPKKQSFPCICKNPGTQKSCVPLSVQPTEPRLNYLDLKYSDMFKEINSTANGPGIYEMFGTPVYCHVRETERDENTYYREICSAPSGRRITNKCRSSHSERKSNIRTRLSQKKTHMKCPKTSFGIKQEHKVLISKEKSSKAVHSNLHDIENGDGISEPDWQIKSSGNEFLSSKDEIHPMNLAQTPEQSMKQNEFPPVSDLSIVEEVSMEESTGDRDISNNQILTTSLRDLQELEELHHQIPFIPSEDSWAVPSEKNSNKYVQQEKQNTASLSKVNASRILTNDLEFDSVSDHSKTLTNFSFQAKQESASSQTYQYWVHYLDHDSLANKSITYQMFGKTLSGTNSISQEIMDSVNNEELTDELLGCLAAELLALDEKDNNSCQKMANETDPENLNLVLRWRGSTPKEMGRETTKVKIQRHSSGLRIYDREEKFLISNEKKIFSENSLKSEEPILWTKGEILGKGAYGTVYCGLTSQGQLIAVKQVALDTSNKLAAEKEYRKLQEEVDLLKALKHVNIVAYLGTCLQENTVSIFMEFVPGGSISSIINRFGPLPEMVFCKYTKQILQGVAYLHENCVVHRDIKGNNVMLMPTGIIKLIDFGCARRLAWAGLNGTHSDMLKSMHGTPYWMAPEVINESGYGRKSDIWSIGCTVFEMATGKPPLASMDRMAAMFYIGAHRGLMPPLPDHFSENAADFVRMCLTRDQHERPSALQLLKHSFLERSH
Kind of experiment: Selectivity interaction (KinomeScan (DiscoverX)) EUB0001550a MAP3K19. The following applies: at 1 µM.

Experiment [10] deals with T2, Ephrin type-B receptor 1 (Homo sapiens) (UniProt P54762).
T2 sequence (whole entry): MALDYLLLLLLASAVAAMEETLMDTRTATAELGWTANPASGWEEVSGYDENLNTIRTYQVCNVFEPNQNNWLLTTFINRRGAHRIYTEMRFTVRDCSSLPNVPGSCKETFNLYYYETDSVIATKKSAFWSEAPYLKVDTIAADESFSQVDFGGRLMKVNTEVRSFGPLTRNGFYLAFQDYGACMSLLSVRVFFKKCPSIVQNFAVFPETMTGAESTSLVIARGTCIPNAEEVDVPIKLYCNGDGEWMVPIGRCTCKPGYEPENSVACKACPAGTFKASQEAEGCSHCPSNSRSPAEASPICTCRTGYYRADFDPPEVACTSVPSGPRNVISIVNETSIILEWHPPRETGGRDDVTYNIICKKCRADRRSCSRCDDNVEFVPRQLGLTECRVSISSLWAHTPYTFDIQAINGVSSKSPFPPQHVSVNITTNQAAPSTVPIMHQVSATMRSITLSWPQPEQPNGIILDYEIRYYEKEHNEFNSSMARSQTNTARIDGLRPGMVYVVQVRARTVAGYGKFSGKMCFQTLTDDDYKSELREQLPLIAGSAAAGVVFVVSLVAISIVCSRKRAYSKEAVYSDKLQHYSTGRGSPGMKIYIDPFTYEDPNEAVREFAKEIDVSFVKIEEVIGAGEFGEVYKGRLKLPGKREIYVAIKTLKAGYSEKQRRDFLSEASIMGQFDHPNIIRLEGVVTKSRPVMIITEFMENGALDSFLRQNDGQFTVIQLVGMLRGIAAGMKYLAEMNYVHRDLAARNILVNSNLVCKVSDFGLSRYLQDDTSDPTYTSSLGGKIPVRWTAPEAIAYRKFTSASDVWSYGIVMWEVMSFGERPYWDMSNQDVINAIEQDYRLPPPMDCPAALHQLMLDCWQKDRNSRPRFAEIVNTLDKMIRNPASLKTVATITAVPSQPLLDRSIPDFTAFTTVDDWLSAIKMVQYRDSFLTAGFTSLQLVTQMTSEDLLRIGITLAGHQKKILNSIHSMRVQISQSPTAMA
The experiment in a line: Selectivity interaction (KinomeScan (DiscoverX)) EUB0000618a EPHB1. Particulars: at 10 µM.

Experiment [11] concerns the target Tyrosine-protein kinase Fgr (Homo sapiens) (UniProt P09769). The experiment in a line: Selectivity interaction (KinomeScan (DiscoverX)) EUB0000618a FGR. Particulars: at 10 µM.

Ephrin type-A receptor 5 (Homo sapiens), sequence (P54756 whole entry): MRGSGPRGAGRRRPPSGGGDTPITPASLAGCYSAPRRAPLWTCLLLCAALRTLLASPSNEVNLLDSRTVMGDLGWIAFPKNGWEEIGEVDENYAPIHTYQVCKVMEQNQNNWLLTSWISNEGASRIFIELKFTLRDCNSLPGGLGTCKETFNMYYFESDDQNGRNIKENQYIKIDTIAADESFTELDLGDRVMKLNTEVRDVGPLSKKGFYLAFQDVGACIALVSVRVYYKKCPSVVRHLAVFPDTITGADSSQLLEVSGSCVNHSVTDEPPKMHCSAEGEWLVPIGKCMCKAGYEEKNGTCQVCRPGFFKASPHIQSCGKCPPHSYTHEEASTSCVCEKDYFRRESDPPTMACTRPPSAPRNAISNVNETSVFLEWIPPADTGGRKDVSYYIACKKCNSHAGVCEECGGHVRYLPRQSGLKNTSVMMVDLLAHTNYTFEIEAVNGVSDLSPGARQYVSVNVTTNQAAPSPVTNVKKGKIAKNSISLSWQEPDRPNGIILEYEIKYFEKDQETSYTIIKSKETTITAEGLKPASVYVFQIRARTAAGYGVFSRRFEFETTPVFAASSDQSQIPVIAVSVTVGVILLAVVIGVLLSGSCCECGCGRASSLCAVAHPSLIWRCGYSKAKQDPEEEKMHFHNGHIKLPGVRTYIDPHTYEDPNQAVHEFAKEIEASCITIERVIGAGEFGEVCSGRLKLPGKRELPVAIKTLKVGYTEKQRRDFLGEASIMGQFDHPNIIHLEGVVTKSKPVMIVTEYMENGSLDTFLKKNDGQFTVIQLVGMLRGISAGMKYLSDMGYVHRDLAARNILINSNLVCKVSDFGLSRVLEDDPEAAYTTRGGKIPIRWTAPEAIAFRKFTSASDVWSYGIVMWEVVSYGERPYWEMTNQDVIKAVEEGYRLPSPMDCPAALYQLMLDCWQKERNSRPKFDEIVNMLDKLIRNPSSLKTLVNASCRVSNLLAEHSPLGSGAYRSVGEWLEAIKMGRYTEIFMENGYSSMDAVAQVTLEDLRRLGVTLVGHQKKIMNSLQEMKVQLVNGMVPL
Casein kinase II subunit alpha, sequence (P68400 whole entry, looked up): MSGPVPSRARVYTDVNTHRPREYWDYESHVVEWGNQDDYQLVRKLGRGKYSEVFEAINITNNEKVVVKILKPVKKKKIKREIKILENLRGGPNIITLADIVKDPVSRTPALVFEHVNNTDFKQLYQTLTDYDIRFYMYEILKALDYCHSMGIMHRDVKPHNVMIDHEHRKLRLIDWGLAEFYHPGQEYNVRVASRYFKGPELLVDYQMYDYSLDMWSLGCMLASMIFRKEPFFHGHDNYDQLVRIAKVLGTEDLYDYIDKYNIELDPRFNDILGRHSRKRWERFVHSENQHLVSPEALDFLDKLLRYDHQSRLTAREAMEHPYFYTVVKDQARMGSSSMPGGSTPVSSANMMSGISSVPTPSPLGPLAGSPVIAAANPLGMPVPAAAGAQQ
Fibroblast growth factor receptor 4, sequence (P22455 22-802 limits assumed): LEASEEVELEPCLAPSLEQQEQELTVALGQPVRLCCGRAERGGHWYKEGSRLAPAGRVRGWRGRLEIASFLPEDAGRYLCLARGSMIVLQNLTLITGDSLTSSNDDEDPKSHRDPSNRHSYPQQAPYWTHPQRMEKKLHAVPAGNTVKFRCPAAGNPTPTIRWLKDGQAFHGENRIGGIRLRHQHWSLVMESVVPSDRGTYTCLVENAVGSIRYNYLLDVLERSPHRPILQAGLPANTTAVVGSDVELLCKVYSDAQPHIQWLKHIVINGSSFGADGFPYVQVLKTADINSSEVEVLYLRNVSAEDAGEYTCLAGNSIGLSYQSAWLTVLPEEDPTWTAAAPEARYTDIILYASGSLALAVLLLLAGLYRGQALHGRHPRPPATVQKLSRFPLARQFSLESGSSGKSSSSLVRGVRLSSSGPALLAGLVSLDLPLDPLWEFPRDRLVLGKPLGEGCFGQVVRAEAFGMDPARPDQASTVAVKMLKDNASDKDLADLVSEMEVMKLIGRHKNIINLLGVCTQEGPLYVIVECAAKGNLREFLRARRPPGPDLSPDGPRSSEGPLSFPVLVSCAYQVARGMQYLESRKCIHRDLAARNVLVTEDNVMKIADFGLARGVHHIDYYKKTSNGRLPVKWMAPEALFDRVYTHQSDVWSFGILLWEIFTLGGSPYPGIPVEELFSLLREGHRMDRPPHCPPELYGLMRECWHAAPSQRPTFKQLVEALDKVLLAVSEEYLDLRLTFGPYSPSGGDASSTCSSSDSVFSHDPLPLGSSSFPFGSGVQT
Mitogen-activated protein kinase kinase kinase kinase 1 (Homo sapiens), sequence (Q92918 whole entry, looked up): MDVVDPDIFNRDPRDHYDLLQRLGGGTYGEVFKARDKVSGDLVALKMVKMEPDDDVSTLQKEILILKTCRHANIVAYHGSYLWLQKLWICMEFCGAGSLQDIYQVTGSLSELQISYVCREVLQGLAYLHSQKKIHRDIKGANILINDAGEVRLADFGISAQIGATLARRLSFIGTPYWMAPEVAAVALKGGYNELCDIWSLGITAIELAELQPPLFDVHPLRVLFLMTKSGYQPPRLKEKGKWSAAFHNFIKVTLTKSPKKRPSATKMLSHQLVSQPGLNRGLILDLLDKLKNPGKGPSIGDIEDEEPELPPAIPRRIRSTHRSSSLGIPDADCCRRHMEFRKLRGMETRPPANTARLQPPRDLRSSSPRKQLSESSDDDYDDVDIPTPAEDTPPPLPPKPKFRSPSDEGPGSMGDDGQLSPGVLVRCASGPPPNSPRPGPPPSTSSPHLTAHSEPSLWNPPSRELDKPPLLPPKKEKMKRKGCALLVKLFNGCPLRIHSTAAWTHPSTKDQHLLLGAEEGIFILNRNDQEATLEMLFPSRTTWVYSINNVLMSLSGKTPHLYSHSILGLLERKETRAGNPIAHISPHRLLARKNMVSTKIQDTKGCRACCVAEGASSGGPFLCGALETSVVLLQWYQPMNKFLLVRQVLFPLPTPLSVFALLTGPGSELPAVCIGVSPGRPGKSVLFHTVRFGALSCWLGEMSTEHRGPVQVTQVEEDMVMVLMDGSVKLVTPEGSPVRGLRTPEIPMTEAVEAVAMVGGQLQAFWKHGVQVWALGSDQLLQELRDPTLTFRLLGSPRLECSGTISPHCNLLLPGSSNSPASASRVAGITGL
Tyrosine-protein kinase ABL1 (Homo sapiens), P00519 [F317L], sequence (P00519 whole entry F317L): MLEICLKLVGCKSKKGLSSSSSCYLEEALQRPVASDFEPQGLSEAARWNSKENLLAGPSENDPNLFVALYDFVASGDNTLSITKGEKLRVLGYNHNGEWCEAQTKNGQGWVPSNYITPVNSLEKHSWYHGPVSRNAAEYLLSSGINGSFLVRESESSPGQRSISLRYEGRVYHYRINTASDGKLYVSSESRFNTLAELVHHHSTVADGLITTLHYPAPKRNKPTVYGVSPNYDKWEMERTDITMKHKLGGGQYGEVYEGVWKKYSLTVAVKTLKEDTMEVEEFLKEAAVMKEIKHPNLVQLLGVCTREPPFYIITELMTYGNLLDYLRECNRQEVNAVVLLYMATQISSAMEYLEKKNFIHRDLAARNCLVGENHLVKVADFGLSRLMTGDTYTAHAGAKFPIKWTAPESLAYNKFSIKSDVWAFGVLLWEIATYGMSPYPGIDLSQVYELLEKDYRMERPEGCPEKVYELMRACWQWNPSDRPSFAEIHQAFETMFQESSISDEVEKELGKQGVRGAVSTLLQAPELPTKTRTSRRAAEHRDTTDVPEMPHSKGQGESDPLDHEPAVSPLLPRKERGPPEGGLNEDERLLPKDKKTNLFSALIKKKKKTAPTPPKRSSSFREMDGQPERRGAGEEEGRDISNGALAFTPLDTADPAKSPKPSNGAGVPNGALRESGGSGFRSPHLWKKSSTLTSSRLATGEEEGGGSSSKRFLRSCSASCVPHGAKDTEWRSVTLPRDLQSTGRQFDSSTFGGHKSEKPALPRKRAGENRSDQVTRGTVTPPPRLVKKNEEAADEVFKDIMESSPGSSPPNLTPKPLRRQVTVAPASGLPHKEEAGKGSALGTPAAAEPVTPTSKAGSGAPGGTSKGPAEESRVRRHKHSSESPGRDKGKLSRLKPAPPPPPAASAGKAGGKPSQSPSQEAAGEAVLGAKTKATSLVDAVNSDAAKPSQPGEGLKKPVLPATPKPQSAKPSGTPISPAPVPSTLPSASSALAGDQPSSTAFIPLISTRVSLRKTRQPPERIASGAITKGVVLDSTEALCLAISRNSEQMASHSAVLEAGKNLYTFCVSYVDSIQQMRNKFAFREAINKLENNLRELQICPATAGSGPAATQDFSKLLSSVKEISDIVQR
Serine/threonine-protein kinase Nek4 (Homo sapiens), sequence (P51957 whole entry, looked up): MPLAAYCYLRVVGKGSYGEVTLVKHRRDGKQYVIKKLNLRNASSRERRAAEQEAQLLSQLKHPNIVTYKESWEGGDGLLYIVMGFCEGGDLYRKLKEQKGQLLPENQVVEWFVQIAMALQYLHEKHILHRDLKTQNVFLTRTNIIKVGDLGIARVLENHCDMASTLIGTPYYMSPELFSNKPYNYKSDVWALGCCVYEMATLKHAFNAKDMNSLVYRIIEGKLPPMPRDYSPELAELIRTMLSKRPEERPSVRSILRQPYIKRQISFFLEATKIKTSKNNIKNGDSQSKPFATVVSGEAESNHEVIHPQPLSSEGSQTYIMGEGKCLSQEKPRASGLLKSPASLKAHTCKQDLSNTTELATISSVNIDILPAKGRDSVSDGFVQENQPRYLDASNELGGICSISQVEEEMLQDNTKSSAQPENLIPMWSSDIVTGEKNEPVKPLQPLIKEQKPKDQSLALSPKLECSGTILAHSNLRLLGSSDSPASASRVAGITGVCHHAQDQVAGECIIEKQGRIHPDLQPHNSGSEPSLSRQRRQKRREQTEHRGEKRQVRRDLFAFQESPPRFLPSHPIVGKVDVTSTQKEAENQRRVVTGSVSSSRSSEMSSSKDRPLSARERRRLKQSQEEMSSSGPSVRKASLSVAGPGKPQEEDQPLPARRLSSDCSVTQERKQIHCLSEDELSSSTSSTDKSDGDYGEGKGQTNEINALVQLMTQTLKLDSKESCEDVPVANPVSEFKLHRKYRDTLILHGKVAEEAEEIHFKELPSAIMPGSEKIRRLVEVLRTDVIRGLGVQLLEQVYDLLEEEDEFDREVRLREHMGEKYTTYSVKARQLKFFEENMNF

In experiment [1], `CNC(=O)Nc1ccc(-c2nc(N3CC4CCC(C3)O4)c3cnn(C4CCC5(CC4)OCCO5)c3n2)cc1` yielded a % of control of 62%.
`Cc1cc([C@@H](C)Nc2ccccc2C(=O)O)c2nc(N3CCOCC3)cc(=O)n2c1` [AZD-6482] displayed a % of control in experiment [2] of 100%.
Regarding `CN(C)CCOc1ccc(-c2nc(-c3ccncc3)c(-c3ccc4c(c3)CC/C4=N\O)[nH]2)cc1`, in experiment [3], the % of control is 59%.
Take `Nc1cnc(N2CCc3cc(S(=O)(=O)Nc4c(F)cc(Cl)cc4F)cc(N4CCCC4=O)c32)nc1` [TP-020n]: the % of control in experiment [4] is 97%.
As to `CC[C@@H]1[C@H](F)C(=O)N[C@@H]1COc1nccc2cc(C(N)=O)c(OC)cc12` [ZIMLOVISERTIB], in experiment [5], the % of inhibition was -1.15%.
In the case of `CCN(CC)CCCCNc1ncc2cc(-c3cc(OC)cc(OC)c3)c(NC(=O)NC(C)(C)C)nc2n1`, the % of control in [6] amounted to 100%.
The compound `CC(=O)Nc1cccc(-n2c(=O)n(C3CC3)c(=O)c3c(Nc4ccc(I)cc4F)n(C)c(=O)c(C)c32)c1` had a % of control in experiment [7] of 107%.
As to `C=CC(=O)Nc1cccc(C(=O)Nc2ccc(Nc3cc(-c4[nH]c(SC)nc4C)ccn3)cc2)c1`, the % of control in [8] (at 1 µM) was 94%; in experiment [8] (at 5 µM) it was 87%.
Compound `CN(C)CC#Cc1ccc2[nH]c3c(c2c1)-c1nc(N)ncc1CCC3` registered a % of control in experiment [9] of 9.9%.
Regarding `O[C@H]1CC[C@H](Nc2ncc3nc(Nc4c(F)cc(F)cc4F)n([C@H]4CCOC4)c3n2)CC1`, the % of control was determined as 96% in experiment [10] and 84% in experiment [11].
